Assay results taken from patent US7622476B2, “Methods of using 1-allyl ergot alkaloid derivatives to treat migraines” (priority 2002, dated 2009).
Like-named read-outs stand apart in the source and are kept apart here. Marks after values point to notes of the source that are not given here.

How the values were obtained:
5-HT2A receptors [1] = target: T1, 5-HT2A receptors (Rattus norvegicus, UniProt P14842); settings: reference compounds marked *; values from H. Pertz (1996) Planta Med. 62, pp. 387-392; cited from earlier work
T1 construct: characterizing 5-HT2A receptors in rat's caudal arteries; from tissue; host or cells: rat anterior caudal artery segments, endothelium stripped (male Wistar rats)

5-HT2B receptors = test: Function test based on 5-HT2B receptor tissue (pig pulmonary artery, 5-HT-induced relaxation); type: cell-based; settings: for 5-HT2B pA2 value: antagonism of 5-HT-induced relaxation, antagonist conc. (nM)
Description: The test was an in vitro function test to characterize 5-HT2B receptors in a pig's pulmonary artery. The pig's pulmonary artery was prepared as follows: Small branches were dissected from the pulmonary artery and cautiously freed of organ tissue and connective tissue. Up to six rings of the artery (length 2-3 mm and width 1.5-2 mm) were hung in horizontal orientation between two L-shaped platinum hooks (150 μm in diameter) and fixed in an organ bath containing 10 ml of modified Krebs-Henseleit buffer composed as follows: 118 mM NaCl, 4.7 mM KCl, 2.5 mM CaCl2, 1.2 mM MgSO4, 1.2 mM KH2PO4, 25 mM NaHCO3, and 11 mM D-glucose. A continuous flow of a gas mixture of 95% O2 and 5% CO2 passed through the solution which was kept at a constant temperature of 35° C. The preparations were connected to an isometric power converter (Hugo Sachs Elektronik, March, Germany), and voltage changes were continuously recorded. The constant voltage in stationary condition was adjusted to 20 mN at the beginning of each experiment. During an initial stabilization period of 60 minutes, the bath medium was replaced every 20 minutes and the voltage was repeatedly adjusted to 20 mN. The artery preparations were stimulated at 45-minute intervals once with KCl (30 mM) and three times with prostaglandin-F2α (PGF2α, 3 μM) until the response by contraction was visible. The undamaged condition of the endothelium was evaluated functionally by measuring the extent of endothelium-dependent relaxation following application of bradykinin (10 nM). After the third PGF2α-induced contraction had stabilized, the relaxation response was examined for 5-HT by determining a cumulative concentration-response curve in the absence and presence of the antagonist. […].
The relaxation response to the test compound was examined using the same method as with 5-HT to test for agonistic activity. The concentration of the agonist was increased in increments at the time when the response signal had reached a plateau. The plateau was typically reached within 2 to 4 minutes. The relaxation effects were expressed as a percentage of the PGF2α-induced contraction. The antagonists were added 30 minutes before the recording of the agonist concentration response curves started. The effects of the antagonists were examined in ring segments that were adjacent to the reference segments.

5-HT2A receptors [2] = target: T1, 5-HT2A receptors; test: Function test based on 5-HT2A receptor tissue (rat caudal artery, 5-HT concentration-response curves); type: cell-based; settings: for 5-HT2A pA2 value: rat caudal artery without endothelium, antagonism of 5-HT, antagonist conc. (nM)
Description: The example below describes an in-vitro function test for characterizing 5-HT2A receptors in rat's caudal arteries.
Male Wistar rats (250-300 g) were killed by suffocation. The anterior caudal artery was dissected fast and cleared of attached connective tissue. A stainless steel wire (0.3 mm in diameter) was introduced into the artery to strip off the endothelium. […] A continuous flow of a gas mixture of 95% O2 and 5% CO2 passed through the solution which was kept at a constant temperature of 37° C. […] The constant voltage was adjusted to 5 mN at the beginning of each experiment. During an equilibrium period of 120 minutes, the preparations were stimulated once after 60 minutes with 5-HT (1 μM).
Three cumulative concentration-response curves (CRC) were determined for each artery segment in these experiments for the study of partial agonists. The first CRC was obtained for 5-HT, the second that followed 60 minutes later for the partial agonist. Finally, the third CRC was obtained 10-15 minutes after the second CRC without washing with 5-HT and using the highest agonist concentration (0.3-3 μM). Additional experiments determined two CRCs at an interval of 60 minutes as described above. The first CRC was determined for 5-HT. The second CRC was determined to test the partial agonist in the presence of ketanserin. The preparations were incubated for 30 minutes with a ketanserin solution (3 nM).
The axial shift to the right of the curves determined in the presence of ketanserin was compared to the shift determined for the respective control preparation in the absence of ketanserin. In these experiments using ketanserin, two separate CRCs to 5-HT were obtained from each artery segment at a 90-minute interval. For the antagonists, the preparations were incubated 60 minutes prior to determining the second curve. Prazosin (0.1 μM) and cocaine (6 μM) were present in the solution during these experiments to block the α1-adrenoceptors and neuronal absorption of 5-HT.

T1 sequence (P14842 whole entry): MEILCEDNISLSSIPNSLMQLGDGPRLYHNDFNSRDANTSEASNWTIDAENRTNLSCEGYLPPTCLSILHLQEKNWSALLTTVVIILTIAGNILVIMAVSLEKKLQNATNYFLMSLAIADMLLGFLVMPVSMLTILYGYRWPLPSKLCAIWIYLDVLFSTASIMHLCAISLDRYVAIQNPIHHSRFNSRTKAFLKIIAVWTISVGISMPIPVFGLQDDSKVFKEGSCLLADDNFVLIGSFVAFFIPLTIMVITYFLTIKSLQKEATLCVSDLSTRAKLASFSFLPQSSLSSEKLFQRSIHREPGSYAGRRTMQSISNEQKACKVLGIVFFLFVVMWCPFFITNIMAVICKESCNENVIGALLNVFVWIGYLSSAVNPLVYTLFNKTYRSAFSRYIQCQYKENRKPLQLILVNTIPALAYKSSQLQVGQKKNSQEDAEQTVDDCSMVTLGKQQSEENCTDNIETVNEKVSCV

SMILES | 5-HT2B pA2 value (5-HT2B receptors) | other results
CN1C[C@H](CO)C=C2c3cccc4[nH]cc(c34)C[C@H]21 [Lysergol] | – | 5-HT2A pA2 value (5-HT2A receptors [1]): 6.88
C=CCn1cc2c3c(cccc31)C1=CC(NC(=O)N(CC)CC)CN(C)C1C2 (stereo not shown) [1-Allyl lisuride] | 8.17 | –
C=CCn1cc2c3c(cccc31)C1=C[C@@H](C(=O)N[C@]3(C)O[C@@]4(O)C5CCCN5C(=O)[C@H](Cc5ccccc5)N4C3=O)CN(C)[C@@H]1C2 (stereo partly shown) [1-Allyl ergotamine] | – | 5-HT2B -logKp, calculated according to Kenakin (5-HT2B receptors; printed in the pA2 column, marked **): 9.11**
C=CCn1cc2c3c(cccc31)C1=C[C@@H](CO)CN(C)[C@@H]1C2 [1-Allyl-lysergol, 1-Allyl lysergol] | 7.61 | Kb (5-HT2A receptors [2]): 3.55 nM
C=CCn1cc2c3c(cccc31)[C@H]1C[C@@H](C(=O)N[C@]3(C)O[C@@]4(O)C5CCCN5C(=O)[C@H](Cc5ccccc5)N4C3=O)CN(C)[C@@H]1C2 (stereo partly shown) [1-Allyl dihydroergotamine] | 9.30 | –
C=CCn1cc2c3c(cccc31)[C@@H]1C[C@H](NC(=O)N(CC)CC)CN(C)[C@H]1C2 [1-Allyl terguride, 1-allyl-(5R,8S,10R)-terguride] | 7.67 | Kb (5-HT2A receptors [2]): 2 nM
CCN(CC)C(=O)N[C@H]1C=C2c3cccc4[nH]cc(c34)C[C@H]2N(C)C1 [Lisuride, reference compound] | 10.32 | –
CCN(CC)C(=O)N[C@H]1C[C@@H]2c3cccc4[nH]cc(c34)C[C@H]2N(C)C1 [Terguride, reference compound] | 8.49 | 5-HT2A pA2 value (5-HT2A receptors [2]): 8.38
C=CCn1cc2c3c(cccc31)[C@H]1C[C@@H](C)CN(C)[C@@H]1C2 [1-Allyl festuclavine] | 6.74 | 5-HT2A pA2 value (5-HT2A receptors [2]): 7.89
